Reference: patent US20160303251A1, “CONJUGATES OF GARFTASE INHIBITORS” (ENDOCYTE, INC., priority 2015, published 2016)

Columns and labels:
KB cells = experiment: In vitro activity in KB cells (3H-thymidine incorporation); format: cell-based, human; conditions: 2 hr pulse at 37° C., chase up to 70 hr
Description: Cells were seeded in 24-well Falcon plates and allowed to form nearly confluent monolayers overnight. After one rinse with 1 mL of fresh FFRPMI/HIFCS, each well received 1 mL of medium containing increasing concentrations of test agent (3 wells per sample). Cells were pulsed with targeted agents for 2 hr at 37° C., rinsed 4 times with 0.5 mL of medium, and then chased in 1 mL of fresh medium up to 70 hr. Cells were treated with non-targeted agent ECO347 for a continuous 72 h. Spent medium was aspirated from all wells and replaced with fresh medium containing 5 μCi/mL ^3H-thymidine. After a further 2 hr 37° C. incubation, cells were washed 3 times with 0.5 mL of PBS and then treated with 0.5 mL of ice-cold 5% trichloroacetic acid per well. After 15 min, the trichloroacetic acid. was aspirated and the cell material solubilized by the addition of 0.5 mL of 0.25 N sodium hydroxide for 15 min. Four hundred and fifty microliters of each solubilized sample were transferred to scintillation vials containing 3 mL of Ecolume scintillation cocktail and then counted in a liquid scintillation counter. Final tabulated results were expressed as the percentage of ^3H-thymidine incorporation relative to untreated controls and IC50 values calculated using Graphpad Prism software.

subcutaneous KB tumors = experiment: Antitumor activity in KB tumor model; format: in vivo, mice; conditions: for PR, complete responses or cure: 1 μmol/kg
Description: METHOD. Inhibition of Tumor Growth in Mice. Four to seven week-old mice (Balb/c or nu/nu strains) are purchased from Harlan Sprague Dawley, Inc. (Indianapolis, Ind.). […] For tumor cell inoculation, 1×10^6 M109 cells (a syngeneic lung carcinoma) in Balb/c strain, or 1×10^6 KB cells in nu/nu strain, in 100 μL are injected in the subcutis of the dorsal medial area (right axilla). Tumors are measured in two perpendicular directions every 2-3 days using a caliper, and their volumes are calculated as 0.5×L×W^2, where L=measurement of longest axis in mm and W=measurement of axis perpendicular to L in mm.
Dosing is initiated when the s.c. tumors have an average volume between 50-100 […] (t0), typically 8 days post tumor inoculation (PTI) for KB tumors, and 11 days PTI for M109 tumors. Test animals (5/group) are injected i.v., generally three times a week (TIW), for 3 weeks with varying doses, such as with 1 μmol/kg to 5 μmol/kg, of the conjugate or with an equivalent dose volume of PBS (control), unless otherwise indicated. Dosing solutions are prepared fresh each day in PBS and administered through the lateral tail vein of the mice.
Female Balb/c nu/nu mice were fed ad libitum with folate-deficient chow (Harlan diet #TD01013) for the duration of the experiment. KB tumor cells were inoculated subcutaneously at the right flank of each mouse. Mice were dosed after the tumors have reached a range of 107-152 mm^3 through the lateral tail vein under sterile conditions in a volume of 200 μL of phosphate-buffered saline (PBS).
Growth of each s.c. tumor was followed by measuring the tumor two times per week. Tumors were measured in two perpendicular directions using Vernier calipers, and their volumes were calculated as 0.5×L×W^2, where L=measurement of longest axis in mm and W=measurement of axis perpendicular to L in mm.

[1] = 0.5 μmol/kg (EC1953 printed 0.5 mol/kg), TIW×2 wk, n=5
[2] = 1 μmol/kg (EC1953, EC 2014 printed 1 mol/kg), TIW×2 wk, n=5
[3] = mice having subcutaneous KB tumors

Nc1nc2[nH]c(CCCc3ccc(C(=O)N[C@@H](CCC(=O)O)C(=O)O)s3)cc2c(=O)[nH]1 [AG94, reference compound]
IC50 (KB cells; Homo sapiens): 2.5 nM | PR, complete responses or cure (subcutaneous KB tumors; TIW×2 wk, n=5): none of the treatment groups showed a PR, complete responses, or cure

Nc1nc2[nH]c(CCCCCCCC(=O)N[C@@H](CCC(=O)O)C(=O)O)cc2c(=O)[nH]1 [AG147, reference compound]
IC50 (KB cells; Homo sapiens): 1.2 nM

CCCC(=O)OCN(C(=O)[C@@H](NC(=O)[C@H]1CCCCN1C)C(C)CC)[C@H](C[C@@H](OC(C)=O)c1nc(C(=O)N[C@@H](Cc2ccc(O)cc2)C[C@H](C)C(=O)NNC(=O)OCCSSCCC(=O)N[C@@H](CCC(=O)NC[C@H](O)[C@@H](O)[C@H](O)[C@H](O)CO)C(=O)N[C@@H](CCC(=O)O)C(=O)N[C@@H](CCC(=O)NC[C@H](O)[C@@H](O)[C@H](O)[C@H](O)CO)C(=O)N[C@@H](CCC(=O)O)C(=O)N[C@@H](CCC(=O)NC[C@H](O)[C@@H](O)[C@H](O)[C@H](O)CO)C(=O)N[C@@H](CSSCCOC(=O)CC[C@H](NC(=O)c2ccc(CCCc3cc4c(=O)[nH]c(N)nc4[nH]3)s2)C(=O)O)C(=O)O)cs1)C(C)C (some centres unmarked) [EC1953]
IC50 (KB cells): 0.4 nM | CR (complete responses) of {PR, CR, cure} (subcutaneous KB tumors; [1]): 1 | PR (partial responses) of {PR, CR, cure} (subcutaneous KB tumors; [1]): 3 | cure of {PR, CR, cure} (subcutaneous KB tumors; [2]): 5 | cure of {PR, CR, cure} (subcutaneous KB tumors; 2 umol/kg, q5d×2 wk (independent dosing protocol)): 5 | cure of {PR, CR, cure} (subcutaneous KB tumors; 2 μmol/kg, single dose, n=5): 2 | cures, observation period extended for 90 days (subcutaneous KB tumors; 1 mol/kg (so in the source), TIW×2 wk): 5/5 | cures, observation period extended for 90 days (subcutaneous KB tumors; 2 mol/kg (so in the source), TIW×2 wk): 5/5 | cure of {PR, CR, cure} (subcutaneous KB tumors; 2 mol/kg (so in the source), TIW×2 wk, n=5): 5 | dose response (subcutaneous KB tumors; [3]): shows a dose response | efficacy compared to comparator (subcutaneous KB tumors; [3]): more efficacious than the comparator folate-tubulysin conjugate

CCCC(=O)OCN(C(=O)[C@@H](NC(=O)[C@H]1CCCCN1C)C(C)CC)[C@H](C[C@@H](OC(C)=O)c1nc(C(=O)N[C@@H](Cc2ccc(O)cc2)C[C@H](C)C(=O)NNC(=O)OCCSSCCC(=O)N[C@@H](CCC(=O)NC[C@H](O)[C@@H](O)[C@H](O)[C@H](O)CO)C(=O)N[C@@H](CCC(=O)O)C(=O)N[C@@H](CCC(=O)NC[C@H](O)[C@@H](O)[C@H](O)[C@H](O)CO)C(=O)N[C@@H](CCC(=O)O)C(=O)N[C@@H](CCC(=O)NC[C@H](O)[C@@H](O)[C@H](O)[C@H](O)CO)C(=O)N[C@@H](CSSCCOC(=O)CC[C@H](NC(=O)CCCCCCCc2cc3c(=O)[nH]c(N)nc3[nH]2)C(=O)O)C(=O)O)cs1)C(C)C (some centres unmarked) [EC2014]
IC50 (KB cells): 0.34 nM | cure of {PR, CR, cure} (subcutaneous KB tumors; [2]): 5

tubulysin B-monohydrazide [reference compound]
PR, complete responses or cure (subcutaneous KB tumors; TIW×2 wk, n=5): none of the treatment groups showed a PR, complete responses, or cure
